# Results as given in US6777422B2, “Substituted tetrahydroisoquinolines as C5a receptor modulators” (Neurogen Corp., priority 2002, dated 2004).
# Molecular target: T1, human C5a receptor (Homo sapiens, UniProt P21730)
# T1 construct: endogenous in cells; host or cells: U937 cells differentiated with 1 mM dibutyryl cAMP
# T1 sequence (P21730 1-350): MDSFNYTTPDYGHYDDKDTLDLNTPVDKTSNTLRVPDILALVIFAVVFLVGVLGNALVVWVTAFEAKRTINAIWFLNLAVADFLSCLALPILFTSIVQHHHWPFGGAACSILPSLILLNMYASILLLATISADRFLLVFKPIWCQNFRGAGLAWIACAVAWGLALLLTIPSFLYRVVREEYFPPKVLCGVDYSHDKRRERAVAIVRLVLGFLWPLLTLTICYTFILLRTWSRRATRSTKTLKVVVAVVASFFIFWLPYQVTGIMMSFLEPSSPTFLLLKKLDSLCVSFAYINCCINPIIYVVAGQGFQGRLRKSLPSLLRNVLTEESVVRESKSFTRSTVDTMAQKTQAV
# Assay: C5a receptor mediated calcium mobilization assay (Example 20)
# Assay type: cell-based
# Conditions: differentiated U937 cells, read-out: Ca2+ (Ki in the standard assay of C5a receptor mediated calcium mobilization)
# Method: Calcium Mobilization Assays
# U937 cells are grown in differentiation media (1 mM dibutyryl cAMP in RPMI 1640 medium containing 10% fetal bovine serum) for 48 hrs at 37° C. then reseeded onto 96-well plates suitable for use in a FLIPR™ Plate Reader (Molecular Devices Corp., Sunnyvale Calif.). Cells are grown an additional 24 hours (to 70-90% confluence) before the assay. The cells are then washed once with Krebs Ringer solution. FLUO-3 calcium sensitive dye (Molecular Probes, Inc. Eugene, Oreg.) is added to 10 μg/mL and incubated with the cells at room temperature for 1 to 2 hours. The 96 well plates are then washed to remove excess dye. Fluorescence responses, measured by excitation at 480 nm and emission at 530 nm, are monitored upon the addition of human C5a to the cells to a final concentration of 0.01-30.0 nM, using the FLIPR™ device (Molecular Devices).
# C. Assays for the Identification of Receptor Modulatory Agents: Antagonists and Agonists
# The calcium mobilization assay described above may be readily adapted for identifying test compounds that have agonist or antagonist activity at the human C5a receptor.
# For example, in order to identify antagonist compounds, differentiated U937 cells are washed and incubated with Fluo-3 dye as described above. One hour prior to measuring the fluorescence signal, a subset of the cells is incubated with 1 μM of at least one compound to be tested. The fluorescence response upon the subsequent addition of 0.3 nM (final concentration) human recombinant C5a is monitored using the FLIPR™ plate reader. Antagonist compounds elicit at least a 2-fold decrease in the fluorescence response relative to that measured in the presence of human C5a alone. Preferred antagonist compounds elicit at least a 5-fold, preferably at least a 10-fold, and more preferably at least a 20-fold decrease in the fluorescence response relative to that measured in the presence of human C5a alone.
row,SMILES,Ki
1,"O=C(CN1CCc2ccccc2[C@H]1c1ccccc1Br)N(Cc1ccccc1F)C1Cc2ccccc2C1 [Compound 40, 2-[(1S)-1-(2-bromophenyl)-3,4-dihydroisoquinolin-2(1H)-yl]-N-(indan-2-yl)-N-(2-fluorobenzyl)acetamide]",< 1000 nM
2,"O=C(CN1CCc2ccccc2[C@H]1c1ccccc1C(F)(F)F)N(Cc1ccccc1F)C1Cc2ccccc2C1 [Compound 41, N-(indan-2-yl)-N-(2-fluorobenzyl)-2-[(1S)-1-[2-(trifluoromethyl)phenyl]-3,4-dihydroisoquinolin-2(1H)-yl]acetamide]",< 1000 nM
3,"Cc1ccccc1[C@@H]1c2ccccc2CCN1[C@@H](C)C(=O)N(Cc1ccccc1F)C1Cc2ccccc2C1 [Compound 42, (2S)-N-(indan-2-yl)-N-(2-fluorobenzyl)-2-[(1R)-1-(2-methylphenyl)-3,4-dihydroisoquinolin-2(1H)-yl]propanamide]",< 1000 nM
4,"O=C(CN1CCc2ccccc2C1c1ccccc1-c1ccccc1)N(Cc1ccccc1F)C1Cc2ccccc2C1 (stereo not shown) [Compound 43, 2-[1-(1,1′-biphenyl-2-yl)-3,4-dihydroisoquinolin-2(1H)-yl]-N-(indan-2-yl)-N-(2-fluorobenzyl)acetamide]",< 1000 nM
5,"O=C(CN1CCc2ccccc2C1c1cccc2ccccc12)N(Cc1ccccc1F)C1Cc2ccccc2C1 (stereo not shown) [Compound 44, N-(indan-2-yl)-N-(2-fluorobenzyl)-2-[1-(1-naphthyl)-3,4-dihydroisoquinolin-2(1H)-yl]acetamide]",< 1000 nM
6,O=C(CN1CCc2ccccc2C12CCc1ccccc12)N(Cc1ccccc1F)C1Cc2ccccc2C1 (stereo not shown) [Compound 45],< 1000 nM
7,"Cc1cccc(C2c3ccccc3CCN2CC(=O)N(Cc2ccccc2F)C2Cc3ccccc3C2)c1Cl (stereo not shown) [Compound 47, 2-[1-(2-chloro-3-methylphenyl)-3,4-dihydroisoquinolin-2(1H)-yl]-N-(indan-2-yl)-N-(2-fluorobenzyl)acetamide]",< 1000 nM
8,"Cc1c(F)cccc1C1c2ccccc2CCN1CC(=O)N(Cc1ccccc1F)C1Cc2ccccc2C1 (stereo not shown) [Compound 48, N-(indan-2-yl)-N-(2-fluorobenzyl)-2-[1-(3-fluoro-2-methylphenyl)-3,4-dihydroisoquinolin-2(1H)-yl]acetamide]",< 1000 nM
9,"O=C(CN1CCc2ccccc2C1c1cccc(C(F)(F)F)c1)N(Cc1ccccc1F)C1Cc2ccccc2C1 (stereo not shown) [Compound 50, N-(indan-2-yl)-N-(2-fluorobenzyl)-2-[1-[3-(trifluoromethyl)phenyl]-3,4-dihydroisoquinolin-2(1H)-yl]acetamide]",< 1000 nM
10,"O=C(CN1CCc2ccccc2C1c1cccc2c1OCC2)N(Cc1ccccc1F)C1Cc2ccccc2C1 (stereo not shown) [Compound 53, 2-[1-(2,3-dihydro-1-benzofuran-7-yl)-3,4-dihydroisoquinolin-2(1H)-yl]-N-(indan-2-yl)-N-(2-fluorobenzyl)acetamide]",< 1000 nM
11,"C[C@H]1CN(CC(=O)N(Cc2ccccc2F)C2Cc3ccccc3C2)[C@@H](c2ccccc2F)c2ccccc21 [Compound 54, N(indan-2-yl)-N-(2-fluorobenzyl)-2-[(1R,4R)-1-(2-fluorophenyl)-4-methyl-3,4-dihydroisoquinolin-2(1H)-yl]acetamide]",< 1000 nM
12,"Cc1cccc(C)c1C1c2ccccc2CCN1CC(=O)N(Cc1ccccc1F)C1Cc2ccccc2C1 (stereo not shown) [Compound 56, N-(indan-2-yl)-2-[1-(2,6-dimethylphenyl)-3,4-dihydroisoquinolin-2(1H)-yl]-N-(2-fluorobenzyl)acetamide]",< 1000 nM
13,"Cc1ccc(F)cc1C1c2ccccc2CCN1CC(=O)N(Cc1ccccc1F)C1Cc2ccccc2C1 (stereo not shown) [Compound 57, N-(indan-2-yl)-N-(2-fluorobenzyl)-2-[1-(5-fluoro-2-methylphenyl)-3,4-dihydroisoquinolin-2(1H)-yl]acetamide]",< 1000 nM
14,"O=C(CN1CCc2ccccc2[C@@H]1c1ccccc1F)N(Cc1ccccc1F)C1Cc2ccccc2C1 [Compound 58, N-(indan-2-yl)-N-(2-fluorobenzyl)-2-[(1R)-1-(2-fluorophenyl)-3,4-dihydroisoquinolin-2(1H)-yl]acetamide]",< 1000 nM
15,"C[C@H]1CN(CC(=O)N(Cc2ccccc2F)C2Cc3ccccc3C2)[C@@H](c2ccccc2Cl)c2ccccc21 [Compound 59, 2-[(1R,4R)-1-(2-chlorophenyl)-4-methyl-3,4-dihydroisoquinolin-2(1H)-yl]-N-(indan-2-yl)-N-(2-fluorobenzyl)acetamide]",< 1000 nM

# Further lines, results first:
row,Ki,SMILES
1,< 1000 nM,"C[C@@H](C(=O)N(Cc1ccccc1F)C1Cc2ccccc2C1)N1CCc2ccccc2[C@@H]1c1ccccc1F [Compound 60, (2S)-N-(indan-2-yl)-N-(2-fluorobenzyl)-2-[(1R)-1-(2-fluorophenyl)-3,4-dihydroisoquinolin-2(1H)-yl]propanamide]"
2,< 1000 nM,"Cc1ccc(C2c3ccccc3CCN2CC(=O)N(Cc2ccccc2F)C2Cc3ccccc3C2)cc1F (stereo not shown) [Compound 61, N-(indan-2-yl)-N-(2-fluorobenzyl)-2-[1-(3-fluoro-4-methylphenyl)-3,4-dihydroisoquinolin-2(1H)-yl]acetamide]"
3,< 1000 nM,"O=C(CN1CCc2ccccc2C1c1cccc2cccnc12)N(Cc1ccccc1F)C1Cc2ccccc2C1 (stereo not shown) [Compound 62, N-(indan-2-yl)-N-(2-fluorobenzyl)-2-(1-quinolin-8-yl-3,4-dihydroisoquinolin-2(1H)-yl)acetamide]"
4,< 1000 nM,"C[C@@H](C(=O)N(Cc1ccccc1F)C1Cc2ccccc2C1)N1CCc2ccccc2[C@@H]1c1cccc2ccccc12 [Compound 63, (2S)-N-(indan-2-yl)-N-(2-fluorobenzyl)-2-[(1R)-1-(1-naphthyl)-3,4-dihydroisoquinolin-2(1H)-yl]propanamide]"
5,< 1000 nM,"C[C@@H](C(=O)N(Cc1ccccc1F)C1Cc2ccccc2C1)N1CCc2ccccc2[C@@H]1c1ccccc1Cl [Compound 64, (2S)-2-[(1R)-1-(2-chlorophenyl)-3,4-dihydroisoquinolin-2(1H)-yl]-N-(indan-2-yl)-N-(2-fluorobenzyl)propanamide]"
6,< 1000 nM,"Cc1c(Cl)cccc1C1c2ccccc2CCN1CC(=O)N(Cc1ccccc1F)C1Cc2ccccc2C1 (stereo not shown) [Compound 65, 2-[1-(3-chloro-2-methylphenyl)-3,4-dihydroisoquinolin-2(1H)-yl]-N-(indan-2-yl)-N-(2-fluorobenzyl)acetamide]"
7,< 1000 nM,"Cc1ccc(F)c(C2c3ccccc3CCN2CC(=O)N(Cc2ccccc2F)C2Cc3ccccc3C2)c1 (stereo not shown) [Compound 66, N-(indan-2-yl)-N-(2-fluorobenzyl)-2-[1-(2-fluoro-5-methylphenyl)-3,4-dihydroisoquinolin-2(1H)-yl]acetamide]"
8,< 1000 nM,"Cc1cccc([C@H]2c3ccccc3CCN2[C@@H](C)C(=O)N(Cc2ccccc2F)C2Cc3ccccc3C2)c1C [Compound 67, (2S)-N-(indan-2-yl)-2-[(1R)-1-(2,3-dimethylphenyl)-3,4-dihydroisoquinolin-2(1H)-yl]-N-(2-fluorobenzyl)propanamide]"
9,< 1000 nM,"Cc1cccc([C@@H]2c3ccccc3CCN2[C@@H](C)C(=O)N(Cc2ccccc2F)C2Cc3ccccc3C2)c1C [Compound 68, (2S)-N-(indan-2-yl)-2-[(1S)-1-(2,3-dimethylphenyl)-3,4-dihydroisoquinolin-2(1H)-yl]-N-(2-fluorobenzyl)propanamide]"
10,< 1000 nM,"C[C@@H](C(=O)N(Cc1ccccc1F)C1Cc2ccccc2C1)N1CCc2ccccc2[C@@H]1c1ccccc1C(F)(F)F [Compound 69, (2S)-N-(indan-2-yl)-N-(2-fluorobenzyl)-2-[(1R)-1-[2-(trifluoromethyl)phenyl]-3,4-dihydroisoquinolin-2(1H)-yl]propanamide]"
11,< 1000 nM,"C[C@@H](C(=O)N(Cc1ccccc1F)C1Cc2ccccc2C1)N1CCc2ccccc2[C@@H]1c1ccccc1Br [Compound 70, (2S)-2-[(1R)-1-(2-bromophenyl)-3,4-dihydroisoquinolin-2(1H)-yl]-N-(indan-2-yl)-N-(2-fluorobenzyl)propanamide]"
12,< 1000 nM,"Cc1cccc(C)c1[C@H]1c2ccccc2CCN1[C@@H](C)C(=O)N(Cc1ccccc1F)C1Cc2ccccc2C1 [Compound 71, (2S)-N-(indan-2-yl)-2-[(1R)-1-(2,6-dimethylphenyl)-3,4-dihydroisoquinolin-2(1H)-yl]-N-(2-fluorobenzyl)propanamide]"
13,< 1000 nM,"O=C(CN1CCc2ccccc2C1c1cccc(F)c1F)N(Cc1ccccc1F)C1Cc2ccccc2C1 (stereo not shown) [Compound 74, 2-[1-(2,3-difluorophenyl)-3,4-dihydroisoquinolin-2(1H)-yl]-N-(indan-2-yl)-N-(2-fluorobenzyl)acetamide]"
